Data published in patent US8119112B2, “Ophthalmic compositions with an amphoteric surfactant and hyaluronic acid” (Bausch & Lomb Incorporated, priority 2008, dated 2012).

Assay: Precipitate formation of polyquaternium-1 with hyaluronic acid
Assay type: physicochemical
From the text: One of the more common quaternary ammonium compounds is α-[4-tris(2-hydroxyethyl)-ammonium chloride-2-butenyl]poly[1-dimethyl ammonium chloride-2-butenyl]-ω-tris(2-hydroxyethyl) ammonium chloride, also referred to in the art as polyquaternium-1. Quaternary ammonium compounds are generally referred to in the art as “polyquaternium” disinfectants, and are identified by a particular number following the designation such as polyquaternium-1, polyquaternium-10 or polyquaternium-42. Polyquaternium-1 is present in the ophthalmic compositions from 0.5 ppm to 3 ppm. […] The precipitate is believed to be the complexation product of hyaluronic acid and polyquaternium-1.

α-[4-tris(2-hydroxyethyl)-ammonium chloride-2-butenyl]poly[1-dimethyl ammonium chloride-2-butenyl]-ω-tris(2-hydroxyethyl) ammonium chloride [polyquaternium-1]
concentration of polyquaternium-1 in the compositions that results in formation of a precipitate: > 3 ppm
